This note sets out measurements from PubChem BioAssay AID248 (DTP/NCI, 2004).

The subject of the assay is L1210 leukemia ip in BDF1 mice, survival T/C. Put plainly: NCI In Vivo Anticancer Drug Screen. Data for tumor model L1210 Leukemia (intraperitoneal) in B6D2F1 (BDF1) mice. The conditions noted are these: endpoint: mean survival time, higher = longer survival. The method, boiled down: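 Ratio derived from survival: compound-dosed mice over vehicle-dosed mice, all bearing a transplantable tumor.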

Where [1] appears, read: dose: 10.0 mg/kg/injection, schedule: Q01DX001 (ip), vehicle: saline.
[2] abbreviates: dose: 100.0 mg/kg/injection, schedule: Q01DX001 (ip), vehicle: saline.
[3] abbreviates: dose: 200.0 mg/kg/injection, schedule: Q01DX001 (ip), vehicle: saline.
The mark [4] stands for this setting: dose: 400.0 mg/kg/injection, schedule: Q01DX001 (ip), vehicle: saline.
Setting [5] is: dose: 100.0 mg/kg/injection, schedule: Q01DX009 (ip), vehicle: Klucel (hydroxypropylcellulose) (HPC).
Where [6] appears, read: dose: 200.0 mg/kg/injection, schedule: Q01DX009 (ip), vehicle: Klucel (hydroxypropylcellulose) (HPC).
[7] abbreviates: dose: 400.0 mg/kg/injection, schedule: Q01DX009 (ip), vehicle: Klucel (hydroxypropylcellulose) (HPC).
[8] abbreviates: dose: 100.0 mg/kg/injection, schedule: Q01DX001 (ip), vehicle: carboxymethylcellulose (CMC).
[9] abbreviates: dose: 200.0 mg/kg/injection, schedule: Q01DX001 (ip), vehicle: carboxymethylcellulose (CMC).
Where [10] appears, read: dose: 400.0 mg/kg/injection, schedule: Q01DX001 (ip), vehicle: carboxymethylcellulose (CMC).
[11] abbreviates: dose: 100.0 mg/kg/injection, schedule: Q01DX009 (ip), vehicle: saline.
[12] abbreviates: dose: 200.0 mg/kg/injection, schedule: Q01DX009 (ip), vehicle: saline.
Where [13] appears, read: dose: 400.0 mg/kg/injection, schedule: Q01DX009 (ip), vehicle: saline.

Values joined by “and” are separate entries in the source; they are usually repeats but may differ in a detail not shown here. Identical values can stand only once. Inconclusive results and toxic doses are left out.

Turning to `COCCOC1=C(N2CC2)C(=O)C(OCCOC)=C(N2CC2)C1=O`, the T/C by setting is: (dose: 0.09 mg/kg/injection, schedule: Q01DX009 (ip), vehicle: saline) 96 % of control; (dose: 0.17 mg/kg/injection, schedule: Q01DX009 (ip), vehicle: saline) 106 % of control; (dose: 0.33 mg/kg/injection, schedule: Q01DX009 (ip), vehicle: saline) 153 % of control; (dose: 0.66 mg/kg/injection, schedule: Q01DX009 (ip), vehicle: saline) 183 % of control; (dose: 1.0 mg/kg/injection, schedule: Q01DX Z (ip), vehicle: saline) 117 % of control; (dose: 1.25 mg/kg/injection, schedule: Q01DX001 (ip), vehicle: saline) 112 % of control. Besides, the T/C is 150 % of control (dose: 1.32 mg/kg/injection, schedule: Q01DX009 (ip), vehicle: saline); 150 % of control (dose: 2.0 mg/kg/injection, schedule: Q01DX Z (ip), vehicle: saline); 153 % of control (dose: 2.27 mg/kg/injection, schedule: Q01DX009 (ip), vehicle: saline); 110 % of control (dose: 3.0 mg/kg/injection, schedule: Q01DX001 (ip), vehicle: saline); 195 % of control (dose: 3.78 mg/kg/injection, schedule: Q01DX009 (ip), vehicle: saline); 150 % of control (dose: 4.0 mg/kg/injection, schedule: Q01DX Z (ip), vehicle: saline). The T/C is, setting by setting: (dose: 5.55 mg/kg/injection, schedule: Q01DX001 (ip), vehicle: saline) 106 % of control; (dose: 6.0 mg/kg/injection, schedule: Q01DX001 (ip), vehicle: saline) 119 % of control; (dose: 6.3 mg/kg/injection, schedule: Q01DX009 (ip), vehicle: saline) 185 % of control; (dose: 8.0 mg/kg/injection, schedule: Q01DX Z (ip), vehicle: saline) 91 % of control; under setting [1], 150 % of control and 176 % of control.
With `COC(=O)CCC(C)=O`, the T/C is, setting by setting: under setting [2], 102 % of control; under setting [3], 102 % of control; under setting [4], 100 % of control.
As to `Cc1ccc(C)c(NS(=O)(=O)c2ccc(Cl)cc2)c1`, the T/C by setting is: under setting [5], 102 % of control; (dose: 100.0 mg/kg/injection, schedule: Q04DX003 (ip), vehicle: Klucel (hydroxypropylcellulose) (HPC)) 107 % of control; under setting [6], 98 % of control; (dose: 200.0 mg/kg/injection, schedule: Q04DX003 (ip), vehicle: Klucel (hydroxypropylcellulose) (HPC)) 113 % of control; under setting [7], 98 % of control; (dose: 400.0 mg/kg/injection, schedule: Q04DX003 (ip), vehicle: Klucel (hydroxypropylcellulose) (HPC)) 113 % of control.
As for `CCOC(=O)C(O)(C#CC(C)C)C1CCCCC1` (centres undefined), the T/C (dose: 100.0 mg/kg/injection, schedule: Q01DX001 (ip), vehicle: other) was 94 % of control; the T/C (dose: 200.0 mg/kg/injection, schedule: Q01DX001 (ip), vehicle: other) was 89 % of control; the T/C (dose: 400.0 mg/kg/injection, schedule: Q01DX001 (ip), vehicle: other) is 94 % of control.
Consider `O=C(Nc1ccc(S(=O)(=O)NC2CCCCC2)cc1)OC1CCCC1`, for which the T/C under setting [8] was 95 % of control, the T/C under setting [9] is 94 % of control and the T/C under setting [10] was 97 % of control.
Consider `CCCCN=C(N)N=C(N)N`, for which the T/C is, setting by setting: (dose: 5.0 mg/kg/injection, schedule: Q01DX001 (ip), vehicle: saline) 107 % of control; under setting [1], 92 % of control; (dose: 20.0 mg/kg/injection, schedule: Q01DX001 (ip), vehicle: saline) 97 % of control; (dose: 40.0 mg/kg/injection, schedule: Q01DX001 (ip), vehicle: saline) 102 % of control; (dose: 80.0 mg/kg/injection, schedule: Q01DX001 (ip), vehicle: saline) 105 % of control; under setting [2], 109 % of control.
Consider `O=C1c2ccccc2-c2cccc(I)c21`, for which the T/C by setting is: under setting [8], 99 % of control; under setting [9], 101 % of control; under setting [10], 92 % of control.
As to `Cc1ccc(Nc2cc(=O)[nH]c(N)n2)cc1Cl`, the T/C reads like this: (dose: 100.0 mg/kg/injection, schedule: Q01DX Z (ip), vehicle: methylcellulose (MC)) 86 % of control; (dose: 200.0 mg/kg/injection, schedule: Q01DX Z (ip), vehicle: methylcellulose (MC)) 103 % of control.
As for `CC(O)CN1C(=O)c2cccc3cc([N+](=O)[O-])cc(c23)C1=O` (centres undefined), the T/C is 95 % of control (dose: 100.0 mg/kg/injection, schedule: Q04DX002 (ip), vehicle: saline with Tween-80); 103 % of control (dose: 200.0 mg/kg/injection, schedule: Q04DX002 (ip), vehicle: saline with Tween-80); 98 % of control (dose: 400.0 mg/kg/injection, schedule: Q04DX002 (ip), vehicle: saline with Tween-80).
In the case of `CC(=O)CCCCC(=O)O`, the T/C under setting [11] is 111 % of control; the T/C (dose: 100.0 mg/kg/injection, schedule: Q04DX003 (ip), vehicle: saline) is 96 % of control; the T/C under setting [12] was 89 % of control; the T/C (dose: 200.0 mg/kg/injection, schedule: Q04DX003 (ip), vehicle: saline) is 93 % of control; the T/C under setting [13] is 94 % of control; the T/C (dose: 400.0 mg/kg/injection, schedule: Q04DX003 (ip), vehicle: saline) was 100 % of control.
Turning to `CN(C)/N=C/c1ccccc1O`, the T/C is 96 % of control under setting [11], 104 % of control under setting [12] and 96 % of control under setting [13].
As for `Nc1cccc2c1C(=O)c1cccc(Cl)c1C2=O`, the T/C is, setting by setting: (dose: 100.0 mg/kg/injection, schedule: Q04DX003 (ip), vehicle: saline with Tween-80) 94 % of control; (dose: 200.0 mg/kg/injection, schedule: Q04DX003 (ip), vehicle: saline with Tween-80) 101 % of control; (dose: 400.0 mg/kg/injection, schedule: Q04DX003 (ip), vehicle: saline with Tween-80) 94 % of control.
Consider `NS(=O)(=O)c1cc[n+]([O-])c2ccccc12`, for which the T/C is 97 % of control (dose: 100.0 mg/kg/injection, schedule: Q01DX001 (ip), vehicle: saline with Tween-80); 96 % of control (dose: 100.0 mg/kg/injection, schedule: Q01DX009 (ip), vehicle: saline with Tween-80); 97 % of control (dose: 200.0 mg/kg/injection, schedule: Q01DX001 (ip), vehicle: saline with Tween-80); 94 % of control (dose: 200.0 mg/kg/injection, schedule: Q01DX009 (ip), vehicle: saline with Tween-80); 96 % of control (dose: 400.0 mg/kg/injection, schedule: Q01DX001 (ip), vehicle: saline with Tween-80).
For `CCCCOc1ccc(OC(=O)Nc2ccc(C(=O)OCC)cc2)cc1`, the T/C runs as follows: under setting [5], 98 % of control; under setting [6], 95 % of control; under setting [7], 97 % of control.
As for `CN=C(C#N)c1ccc(OC)c(OC)c1`, the T/C (dose: 50.0 mg/kg/injection, schedule: Q01DX001 (ip), vehicle: saline) is 102 % of control; the T/C under setting [2] was 96 % of control; the T/C under setting [3] is 102 % of control; the T/C under setting [4] was 102 % of control.
Consider `O=C1CC23CCC(=O)C2(CC3)C1` (centres undefined), for which the T/C is, setting by setting: (dose: 75.0 mg/kg/injection, schedule: Q04DX002 (ip), vehicle: saline) 103 % of control; (dose: 150.0 mg/kg/injection, schedule: Q04DX002 (ip), vehicle: saline) 103 % of control; (dose: 300.0 mg/kg/injection, schedule: Q04DX002 (ip), vehicle: saline) 100 % of control.
With `O=C(Nc1nc2ccccc2[nH]1)c1ccc(C(=O)Nc2nc3ccccc3[nH]2)cc1`, the T/C by setting is: (dose: 15.0 mg/kg/injection, schedule: Q01DX Z (ip), vehicle: other) 100 % of control; (dose: 30.0 mg/kg/injection, schedule: Q01DX Z (ip), vehicle: other) 100 % of control; (dose: 60.0 mg/kg/injection, schedule: Q01DX Z (ip), vehicle: other) 100 % of control; (dose: 120.0 mg/kg/injection, schedule: Q01DX Z (ip), vehicle: other) 97 % of control; (dose: 180.0 mg/kg/injection, schedule: Q01DX Z (ip), vehicle: carboxymethylcellulose (CMC)) 102 % of control; (dose: 270.0 mg/kg/injection, schedule: Q01DX Z (ip), vehicle: carboxymethylcellulose (CMC)) 96 % of control.
